Reference: ChEMBL document CHEMBL1909046, “DrugMatrix in vitro pharmacology data”

Tests used:
[1] = target: Adenosine receptor A2a (Homo sapiens, UniProt P29274); assay: DRUGMATRIX: Adenosine A2A radioligand binding (ligand: […]); assay type: cell membranes, HEK293, Membrane; settings: hek293; Not Active = under 50% inhibition at 10 µM
[2] = target: T1, Alpha-1B adrenergic receptor (Rattus norvegicus, UniProt P15823); assay: DRUGMATRIX: Alpha-1B adrenergic receptor radioligand binding (ligand: prazosin); assay type: cell membranes, Wistar, Liver, Membrane; settings: Not Active = under 50% inhibition at 10 µM
T1 sequence (P15823 whole entry): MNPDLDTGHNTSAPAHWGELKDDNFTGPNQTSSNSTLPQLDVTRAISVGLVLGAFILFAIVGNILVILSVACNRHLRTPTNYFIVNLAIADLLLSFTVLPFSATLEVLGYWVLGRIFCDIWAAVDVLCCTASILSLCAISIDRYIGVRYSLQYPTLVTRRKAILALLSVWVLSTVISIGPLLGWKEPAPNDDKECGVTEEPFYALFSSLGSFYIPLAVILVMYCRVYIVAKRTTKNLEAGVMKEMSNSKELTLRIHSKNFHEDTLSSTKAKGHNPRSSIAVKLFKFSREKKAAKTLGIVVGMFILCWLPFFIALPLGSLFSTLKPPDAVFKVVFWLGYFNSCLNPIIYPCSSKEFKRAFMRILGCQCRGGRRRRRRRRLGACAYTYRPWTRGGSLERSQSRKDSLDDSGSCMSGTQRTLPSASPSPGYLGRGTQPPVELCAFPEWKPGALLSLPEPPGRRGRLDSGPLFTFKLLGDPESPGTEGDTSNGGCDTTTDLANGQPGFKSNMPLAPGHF

[3] = target: 5-hydroxytryptamine receptor 4 (Cavia porcellus, UniProt O70528); assay type: cell membranes, Dunkin-Hartley, Striatum, Membrane; further: in other assays of this panel Not Active means under 50% inhibition at 10 µM
[4] = target: T2, Interstitial collagenase (Homo sapiens, UniProt P03956); assay type: tissue-based, Rheumatoid synovial fibroblasts;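 further: MMP-1 enzyme inhibition assay using a peptide substrate; in other assays of this panel Not Active means under 50% inhibition at 10 µM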
T2 sequence (P03956 whole entry): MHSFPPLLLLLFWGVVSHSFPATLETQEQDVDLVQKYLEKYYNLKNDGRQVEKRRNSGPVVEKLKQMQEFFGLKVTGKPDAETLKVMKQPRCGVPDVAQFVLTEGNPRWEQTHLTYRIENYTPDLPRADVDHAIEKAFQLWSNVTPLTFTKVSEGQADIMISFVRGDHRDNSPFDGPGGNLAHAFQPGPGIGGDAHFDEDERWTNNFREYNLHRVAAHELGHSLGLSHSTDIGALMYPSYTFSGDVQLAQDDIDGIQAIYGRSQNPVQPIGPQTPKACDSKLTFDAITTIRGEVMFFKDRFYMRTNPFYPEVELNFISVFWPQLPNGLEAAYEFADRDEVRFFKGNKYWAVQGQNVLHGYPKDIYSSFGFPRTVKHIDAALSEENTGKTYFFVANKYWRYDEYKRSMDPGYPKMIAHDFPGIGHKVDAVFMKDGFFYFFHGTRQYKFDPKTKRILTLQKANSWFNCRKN

[5] = DRUGMATRIX: Interleukin IL-1 radioligand binding (ligand: [125I] interleukin 1beta); assay type: cell membranes, Membrane; settings: nih3t3; Not Active = under 50% inhibition at 10 µM
[6] = DRUGMATRIX: Glutamate, NMDA, Phencyclidine radioligand binding (ligand: [3H] TCP); assay type: cell membranes, Rattus norvegicus, Wistar, Cerebral cortex, Membrane; settings: Not Active = under 50% inhibition at 10 µM
[7] = DRUGMATRIX: Calcium Channel Type L, Dihydropyridine radioligand binding (ligand: [3H] Nitrendipine); assay type: cell membranes, Rattus norvegicus, Wistar, Cerebral cortex, Membrane; settings: Not Active = under 50% inhibition at 10 µM
[8] = target: Glycine receptor (Rattus norvegicus, UniProt P22771+P24524+P07727+P20781); assay type: cell membranes, Wistar, Spinal cord, Membrane; further: in other assays of this panel Not Active means under 50% inhibition at 10 µM
[9] = target: T3, Neuropeptide Y receptor type 1 (Homo sapiens, UniProt P25929); assay type: cell membranes, Membrane; settings: sk-n-mc; further: in other assays of this panel Not Active means under 50% inhibition at 10 µM
T3 sequence (P25929 whole entry): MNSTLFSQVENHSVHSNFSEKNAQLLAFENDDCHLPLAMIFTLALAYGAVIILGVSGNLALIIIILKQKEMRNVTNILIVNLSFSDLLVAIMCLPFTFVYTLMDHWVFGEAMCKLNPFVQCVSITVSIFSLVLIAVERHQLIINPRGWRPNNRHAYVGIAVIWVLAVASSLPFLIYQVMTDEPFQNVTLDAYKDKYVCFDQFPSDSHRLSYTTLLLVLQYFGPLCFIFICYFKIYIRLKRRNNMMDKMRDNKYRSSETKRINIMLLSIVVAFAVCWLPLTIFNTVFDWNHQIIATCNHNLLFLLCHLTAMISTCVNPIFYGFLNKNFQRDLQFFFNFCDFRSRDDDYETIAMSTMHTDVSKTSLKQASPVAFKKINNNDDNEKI

[10] = target: T4, Polyunsaturated fatty acid lipoxygenase ALOX15 (Oryctolagus cuniculus, UniProt P12530); assay: biochemical; assay type: tissue-based, Reticulocytes; settings: reticulocytes
T4 sequence (P12530 whole entry): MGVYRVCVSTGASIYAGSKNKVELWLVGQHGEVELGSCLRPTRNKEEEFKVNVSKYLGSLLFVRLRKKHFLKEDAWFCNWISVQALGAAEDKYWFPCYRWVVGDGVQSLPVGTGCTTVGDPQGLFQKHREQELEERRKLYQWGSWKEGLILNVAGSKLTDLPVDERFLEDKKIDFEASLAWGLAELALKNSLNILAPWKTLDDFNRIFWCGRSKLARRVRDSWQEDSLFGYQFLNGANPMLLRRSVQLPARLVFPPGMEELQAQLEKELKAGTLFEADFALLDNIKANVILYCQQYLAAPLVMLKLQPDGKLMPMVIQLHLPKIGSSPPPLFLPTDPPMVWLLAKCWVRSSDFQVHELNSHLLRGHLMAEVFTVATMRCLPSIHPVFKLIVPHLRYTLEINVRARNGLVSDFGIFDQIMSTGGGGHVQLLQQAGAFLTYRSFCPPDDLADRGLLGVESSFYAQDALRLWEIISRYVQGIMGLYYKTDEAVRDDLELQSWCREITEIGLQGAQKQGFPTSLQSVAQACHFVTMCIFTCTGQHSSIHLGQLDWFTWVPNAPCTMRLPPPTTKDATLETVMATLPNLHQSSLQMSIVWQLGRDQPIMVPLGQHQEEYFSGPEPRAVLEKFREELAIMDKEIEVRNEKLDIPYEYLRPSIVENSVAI

[11] = target: T5, Neutrophil elastase (Homo sapiens, UniProt P08246); assay type: tissue-based
T5 sequence (P08246 whole entry): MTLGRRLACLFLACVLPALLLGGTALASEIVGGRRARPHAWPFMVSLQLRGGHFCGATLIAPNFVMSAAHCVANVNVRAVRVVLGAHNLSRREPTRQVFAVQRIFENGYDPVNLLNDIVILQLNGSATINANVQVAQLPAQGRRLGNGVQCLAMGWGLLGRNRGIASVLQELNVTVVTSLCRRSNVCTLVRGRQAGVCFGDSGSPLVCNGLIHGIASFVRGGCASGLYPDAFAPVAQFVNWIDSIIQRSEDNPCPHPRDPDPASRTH

Chain of Adenosine receptor A2a (P29274 whole entry): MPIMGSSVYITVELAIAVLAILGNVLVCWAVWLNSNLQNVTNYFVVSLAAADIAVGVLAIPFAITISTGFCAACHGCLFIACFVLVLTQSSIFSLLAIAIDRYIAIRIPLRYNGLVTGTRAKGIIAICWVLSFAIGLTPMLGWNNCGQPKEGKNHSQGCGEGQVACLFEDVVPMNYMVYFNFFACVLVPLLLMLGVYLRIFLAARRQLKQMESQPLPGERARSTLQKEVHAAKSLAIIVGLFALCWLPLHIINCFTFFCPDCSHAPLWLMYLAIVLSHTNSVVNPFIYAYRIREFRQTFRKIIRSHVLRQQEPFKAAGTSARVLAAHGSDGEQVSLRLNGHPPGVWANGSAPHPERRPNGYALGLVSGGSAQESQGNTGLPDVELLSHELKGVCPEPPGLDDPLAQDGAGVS
Chain of 5-hydroxytryptamine receptor 4 (O70528 whole entry): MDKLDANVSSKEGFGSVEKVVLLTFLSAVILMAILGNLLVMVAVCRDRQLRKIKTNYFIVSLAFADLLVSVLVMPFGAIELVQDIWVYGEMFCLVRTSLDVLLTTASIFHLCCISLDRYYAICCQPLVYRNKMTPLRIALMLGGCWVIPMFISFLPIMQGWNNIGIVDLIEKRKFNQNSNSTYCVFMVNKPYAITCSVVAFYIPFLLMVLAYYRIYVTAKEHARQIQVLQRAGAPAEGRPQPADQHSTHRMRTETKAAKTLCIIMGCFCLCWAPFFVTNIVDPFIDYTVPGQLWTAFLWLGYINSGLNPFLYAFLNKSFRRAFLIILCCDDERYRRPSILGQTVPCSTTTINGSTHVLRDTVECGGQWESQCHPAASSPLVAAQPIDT

CC(C)(C)NCC(O)c1ccc(O)c(CO)c1 (stereo not given) [ALBUTEROL]
Not Active: IC50 [1] | IC50 [2] | IC50 [3] | IC50 [4] | IC50 [5] | Ki [5] | IC50 [6] | Ki [6] | IC50 [7] | Ki [7] | IC50 [8] | IC50 [9] | IC50 [10] | IC50 [11]

Oc1c(I)cc(I)c2cccnc12 [IODOQUINOL]
Not Active: IC50 [1] | IC50 [2] | IC50 [3] | IC50 [4] | IC50 [5] | Ki [5] | IC50 [6] | Ki [6] | IC50 [7] | Ki [7] | IC50 [8] | IC50 [9] | IC50 [10] | IC50 [11]

NNC(=O)c1ccncc1 [ISONIAZID]
Not Active: IC50 [1] | IC50 [2] | IC50 [3] | IC50 [4] | IC50 [5] | Ki [5] | IC50 [6] | Ki [6] | IC50 [7] | Ki [7] | IC50 [8] | IC50 [9] | IC50 [10] | IC50 [11]

CC1=C(/C=C/C(C)=C/C=C/C(C)=C\C(=O)O)C(C)(C)CCC1 [ISOTRETINOIN]
Not Active: IC50 [1] | IC50 [2] | IC50 [3] | IC50 [4] | IC50 [5] | Ki [5] | IC50 [6] | Ki [6] | IC50 [7] | Ki [7] | IC50 [8] | IC50 [9] | IC50 [10] | IC50 [11]

CO[C@@H]1[C@@H](O[C@@H]2O[C@H](C)[C@@H](O[C@H]3C[C@@](C)(O)[C@@H](OC(=O)CC(C)C)[C@H](C)O3)[C@H](N(C)C)[C@H]2O)[C@@H](CC=O)C[C@@H](C)[C@@H](O)/C=C/C=C/C[C@@H](C)OC(=O)C[C@H]1O [KITASAMYCIN]
Not Active: IC50 [1] | IC50 [2] | IC50 [3] | IC50 [4] | IC50 [5] | Ki [5] | IC50 [6] | Ki [6] | IC50 [7] | Ki [7] | IC50 [8] | IC50 [9] | IC50 [10] | IC50 [11]
